Active and inactive are the calls of the source. No cut-off for these calls is given here.
What was measured:
Nucleic Acid [1] = experiment: Induction of DNA alkylation at 3'-side adenines in 5'-AGCAGTCAAAAA-3' site of 5'-Texas Red-modified 209bp DNA fragment at 10 nm to 1 uM after 18 hrs at 23 degC by high-resolution denaturing PAGE; assay type: nucleic-acid assay
Nucleic Acid [2] = experiment: Induction of DNA alkylation at 5'-TCTTTTTAA-3' site of 5'-Texas Red-modified 209bp DNA fragment at 10 nm to 1 uM after 18 hrs at 23 degC by high-resolution denaturing PAGE; assay type: nucleic-acid assay
K562 = experiment: Growth inhibition of human K562 cells after 48 hrs by WST8 dye reduction assay; assay type: functional; conditions: K562, 48 h
Nucleic Acid [3] = experiment: Induction of DNA alkylation at 5'-AAAAAAGACTGCT-3' site of 5'-Texas Red-modified 209bp DNA fragment at 10 nm to 1 uM after 18 hrs at 23 degC by high-resolution denaturing PAGE; assay type: nucleic-acid assay
Nucleic Acid [4] = experiment: Induction of DNA alkylation at 5' side in 5'-AGCAGTC-3' site of 5'-Texas Red-modified 209bp DNA fragment at 10 nm to 1 uM after 18 hrs at 23 degC by high-resolution denaturing PAGE; assay type: nucleic-acid assay

| Compound | Activity (Nucleic Acid [1]) | Activity (Nucleic Acid [2]) | GI50 (K562) [nM] | Activity (Nucleic Acid [3]) | Activity (Nucleic Acid [4]) |
| --- | --- | --- | --- | --- | --- |
| CC(=O)Nc1cn(C)c(C(=O)Nc2cc(C(=O)Nc3cc(C(=O)NCCC(=O)Nc4cn(C)c(C(=O)Nc5cc(C(=O)NCCCC(=O)Nc6cn(C)c(C(=O)Nc7cc(C(=O)NCCC(=O)Nc8cn(C)c(C(=O)Nc9ccc%10[nH]c(C(=O)N%11CC(CCl)c%12c%11cc(O)c%11ccccc%12%11)cc%10c9)n8)n(C)c7)n6)n(C)c5)n4)n(C)c3)n(C)c2)n1 (configuration not stated) | Active | Active | 60 | – | – |
| CN(C)CCCNC(=O)c1cc(NC(=O)c2cc(NC(=O)c3nc(NC(=O)CCNC(=O)c4cc(NC(=O)c5ncc(NC(=O)CCCNC(=O)c6cc(NC(=O)c7nc(NC(=O)CCNC(=O)c8cc(NC(=O)c9cc(NC(=O)c%10nc(NC(=O)CCNC(=O)CCCc%11ccc(N(CCCl)CCCl)cc%11)cn%10C)cn9C)cn8C)cn7C)cn6C)n5C)cn4C)cn3C)cn2C)cn1C | Active | – | 8000 | inactive | – |
| CN(C)CCCNC(=O)c1cc(NC(=O)c2cc(NC(=O)c3nc(NC(=O)CCNC(=O)c4cc(NC(=O)c5ncc(NC(=O)CCCNC(=O)c6cc(NC(=O)c7nc(NC(=O)CCNC(=O)c8cc(NC(=O)c9cc(NC(=O)c%10nc(NC(=O)CCCc%11ccc(N(CCCl)CCCl)cc%11)cn%10C)cn9C)cn8C)cn7C)cn6C)n5C)cn4C)cn3C)cn2C)cn1C | Active | Active | > 2500 | inactive | – |
| CC(=O)Nc1cn(C)c(C(=O)Nc2cc(C(=O)Nc3cc(C(=O)NCCC(=O)Nc4cn(C)c(C(=O)Nc5cc(C(=O)N[C@H](CCNC(=O)CCCc6ccc(N(CCCl)CCCl)cc6)C(=O)Nc6cnc(C(=O)Nc7cc(C(=O)NCCC(=O)Nc8cn(C)c(C(=O)Nc9cc(C(=O)Nc%10cc(C(=O)NCCCN(C)C)n(C)c%10)n(C)c9)n8)n(C)c7)n6C)n(C)c5)n4)n(C)c3)n(C)c2)n1 | Active | – | > 10000 | inactive | Active |
| CC(=O)Nc1cn(C)c(C(=O)Nc2cc(C(=O)Nc3cc(C(=O)NCCC(=O)Nc4cn(C)c(C(=O)Nc5cc(C(=O)NCCCC(=O)Nc6cnc(C(=O)Nc7cc(C(=O)NCCC(=O)Nc8cn(C)c(C(=O)Nc9cc(C(=O)Nc%10cc(C(=O)NCCCN(C)CCCNC(=O)CCCc%11ccc(N(CCCl)CCCl)cc%11)n(C)c%10)n(C)c9)n8)n(C)c7)n6C)n(C)c5)n4)n(C)c3)n(C)c2)n1 | Active | – | > 2500 | Active | – |

Reference: ChEMBL document CHEMBL1156858, “Comparative analysis of DNA alkylation by conjugates between pyrrole-imidazole hairpin polyamides and chlorambucil or seco-CBI” (2010)
